Assay results taken from patent US20200060276A1, “THIAZOLE COMPOUND AND HERBICIDE” (OAT Agrio Co., Ltd., priority 2017, published 2020).

Legend:
Format in all cases: in vivo
[1] = test system: Echinochloa crus-galli (L.) P. Beauv. var. formosensis Ohwi; assay: Test for Herbicidal Effect in Flooding Treatment (#1), ECHDG; conditions: flooding treatment at seeding, dose 2 kg/ha, visual observation on day 21
Method in brief: (§1)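 Visual scores from 0 (<10% inhibition) to 5 (≥90% or complete withering) were taken 21 days after treatment of glasshouse-grown plants. Seeds were sown in soil flooded for 24 h beforehand, and compound was applied dropwise onto the surface at 2 kg/ha as an acetone solution diluted in water with Tween 80.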

Scirpus juncoides = assay: Test for Herbicidal Effect in Flooding Treatment (#1), SCIJU; conditions: flooding treatment at seeding, dose 2 kg/ha, visual observation on day 21
Method in brief: as §1

[2] = test system: Echinochloa crus-galli (L.) P. Beauv. var. formosensis Ohwi; assay: Test for Herbicidal Effect in Flooding Treatment (#2), ECHDG at 2-2.5 leaf stage; conditions: for ECHDG (2-2.5L) #2 herbicidal effect (growth inhibition grade): flooding treatment at 2-2.5 leaf stage, dose 0.2 kg/ha, visual observation on day 21
Method in brief: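 Flooded muddy soil was seeded with the weed, and at 2–2.5 leaf stage compound in acetone/Tween 80 water was dropped on the water surface at 0.2 kg/ha. Plants were kept in a glasshouse and scored visually on day 21 from 0 (<10% growth inhibition) to 5 (≥90% or complete withering).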

Cyperus microiria = assay: Test for Herbicidal Effect in Flooding Treatment (#1), CYMIC; conditions: flooding treatment at seeding, dose 2 kg/ha, visual observation on day 21
Protocol: (#1) Test for Herbicidal Effect in Flooding Treatment: Styrol cups each having an opening diameter of 8 cm (about 52 cm^2) were respectively filled with soil (45 ml) which had been passed through a sieve (2 mm). Water (about 115 ml) was mixed with the soil such that the soil was flooded. After the soil stood still for 24 hours, Monochoria vaginalis, Echinochloa crus-galli (L.) P. Beauv. var. formosensis Ohwi, Cyperus difformis (umbrella sedge), and Scirpus juncoides were seeded. Each of the compounds of the present invention was dissolved in acetone, and the obtained product was then diluted with water containing Tween 80®. Each of the resultant chemical solutions was dropped on the entire surface of an associated one of treatment sections, so that each section was treated with 1 ml of the respective chemical solution (a dose of 2 kg/ha). After the treatment, the plants were grown in a glasshouse. On day 21, a survey was conducted on the herbicidal activity by visual observation, and evaluation was made according to the following criteria. 0: Growth inhibition effect is less than 10%. 1: Growth inhibition effect is equal to or greater than 10%, and less than 30%. 2; Growth inhibition effect is equal to or greater than 30%, and less than 50%. 3: Growth inhibition effect equal to or greater than 50%, and less than 70%. 4: Growth inhibition effect is equal to or greater than 70%, and less than 90%. 5: Growth inhibition effect is equal to or greater than 90%, or complete withering is achieved. ECHDG=Echinochloa crus-galli (L.) P. Beauv. var. formosensis Ohwi, MONVA=Monochoria vaginalis, SCIJU=Scirpus juncoides, CYMIC=Cyperus microiria.

Compound	ECHDG #1 herbicidal effect (growth inhibition grade) [1]	SCIJU #1 herbicidal effect (growth inhibition grade) (Scirpus juncoides)	ECHDG (2-2.5L) #2 herbicidal effect (growth inhibition grade) [2]	CYMIC #1 herbicidal effect (growth inhibition grade) (Cyperus microiria)	inhibition at 200 g/ha ([2]; Echinochloa crus-galli, 504 h, flooding treatment (#2), ECHDG at 2-2.5 leaf stage, dose of 0.2 kg/ha, day 21, visual observation, read-out: growth inhibition effect) [%]
CCOc1ccc(Br)cc1CS(=O)(=O)c1ncc(Cl)s1 [Compound 1C-17]	5 (Growth inhibition effect is equal to or greater than 90%, or complete withering is achieved)	5 (Growth inhibition effect is equal to or greater than 90%, or complete withering is achieved)	5 (Growth inhibition effect is equal to or greater than 90%, or complete withering is achieved)	5 (Growth inhibition effect is equal to or greater than 90%, or complete withering is achieved)	
CCOc1ccc(C)cc1CS(=O)(=O)c1ncc(Cl)s1 [Compound 1C-18]	5 (Growth inhibition effect is equal to or greater than 90%, or complete withering is achieved)	5 (Growth inhibition effect is equal to or greater than 90%, or complete withering is achieved)	5 (Growth inhibition effect is equal to or greater than 90%, or complete withering is achieved)	5 (Growth inhibition effect is equal to or greater than 90%, or complete withering is achieved)	
CCOc1cccc(Cl)c1CS(=O)(=O)c1ncc(Cl)s1 [Compound 1C-20]	5 (Growth inhibition effect is equal to or greater than 90%, or complete withering is achieved)	5 (Growth inhibition effect is equal to or greater than 90%, or complete withering is achieved)	5 (Growth inhibition effect is equal to or greater than 90%, or complete withering is achieved)	5 (Growth inhibition effect is equal to or greater than 90%, or complete withering is achieved)	≥ 90
CCOc1c(Br)cc(Cl)cc1CS(=O)(=O)c1ncc(Cl)s1 [Compound 1C-24]	5 (Growth inhibition effect is equal to or greater than 90%, or complete withering is achieved)	5 (Growth inhibition effect is equal to or greater than 90%, or complete withering is achieved)	5 (Growth inhibition effect is equal to or greater than 90%, or complete withering is achieved)	5 (Growth inhibition effect is equal to or greater than 90%, or complete withering is achieved)	
CCOc1c(Cl)cc(Cl)c(Cl)c1CS(=O)(=O)c1ncc(Cl)s1 [Compound 1C-34]	5 (Growth inhibition effect is equal to or greater than 90%, or complete withering is achieved)	5 (Growth inhibition effect is equal to or greater than 90%, or complete withering is achieved)	4 (Growth inhibition effect is equal to or greater than 70%, and less than 90%)	5 (Growth inhibition effect is equal to or greater than 90%, or complete withering is achieved)	
O=S(=O)(Cc1ccccc1OC(F)(F)F)c1ncc(Cl)s1 [Compound 1C-46]	5 (Growth inhibition effect is equal to or greater than 90%, or complete withering is achieved)	5 (Growth inhibition effect is equal to or greater than 90%, or complete withering is achieved)	5 (Growth inhibition effect is equal to or greater than 90%, or complete withering is achieved)	5 (Growth inhibition effect is equal to or greater than 90%, or complete withering is achieved)	
COc1cccc(CS(=O)(=O)c2ncc(Cl)s2)c1C [Compound 1C-67]	5 (Growth inhibition effect is equal to or greater than 90%, or complete withering is achieved)	5 (Growth inhibition effect is equal to or greater than 90%, or complete withering is achieved)	5 (Growth inhibition effect is equal to or greater than 90%, or complete withering is achieved)	5 (Growth inhibition effect is equal to or greater than 90%, or complete withering is achieved)	
COc1cc(CS(=O)(=O)c2ncc(Cl)s2)ccc1C [Compound 1C-68]	5 (Growth inhibition effect is equal to or greater than 90%, or complete withering is achieved)	5 (Growth inhibition effect is equal to or greater than 90%, or complete withering is achieved)	4 (Growth inhibition effect is equal to or greater than 70%, and less than 90%)	5 (Growth inhibition effect is equal to or greater than 90%, or complete withering is achieved)	
COc1ccc(Cl)c(CS(=O)(=O)c2ncc(Cl)s2)c1F [Compound 1C-71]	5 (Growth inhibition effect is equal to or greater than 90%, or complete withering is achieved)	5 (Growth inhibition effect is equal to or greater than 90%, or complete withering is achieved)	5 (Growth inhibition effect is equal to or greater than 90%, or complete withering is achieved)	5 (Growth inhibition effect is equal to or greater than 90%, or complete withering is achieved)	
COc1ccc(F)c(CS(=O)(=O)c2ncc(Cl)s2)c1Cl [Compound 1C-72]	5 (Growth inhibition effect is equal to or greater than 90%, or complete withering is achieved)	5 (Growth inhibition effect is equal to or greater than 90%, or complete withering is achieved)	5 (Growth inhibition effect is equal to or greater than 90%, or complete withering is achieved)	5 (Growth inhibition effect is equal to or greater than 90%, or complete withering is achieved)	
COc1c(F)c(F)cc(CS(=O)(=O)c2ncc(Cl)s2)c1F [Compound 1C-74]	5 (Growth inhibition effect is equal to or greater than 90%, or complete withering is achieved)	5 (Growth inhibition effect is equal to or greater than 90%, or complete withering is achieved)	3 (Growth inhibition effect equal to or greater than 50%, and less than 70%)	5 (Growth inhibition effect is equal to or greater than 90%, or complete withering is achieved)	
CCOc1cc(CS(=O)(=O)c2ncc(Cl)s2)ccc1F [Compound 1C-76]	5 (Growth inhibition effect is equal to or greater than 90%, or complete withering is achieved)	5 (Growth inhibition effect is equal to or greater than 90%, or complete withering is achieved)	4 (Growth inhibition effect is equal to or greater than 70%, and less than 90%)	5 (Growth inhibition effect is equal to or greater than 90%, or complete withering is achieved)	
CCOc1ccc(Cl)c(CS(=O)(=O)c2ncc(Cl)s2)c1 [Compound 1C-80]	5 (Growth inhibition effect is equal to or greater than 90%, or complete withering is achieved)	5 (Growth inhibition effect is equal to or greater than 90%, or complete withering is achieved)	5 (Growth inhibition effect is equal to or greater than 90%, or complete withering is achieved)	5 (Growth inhibition effect is equal to or greater than 90%, or complete withering is achieved)	
